The source of these data is patent US20250041309A1 (ZHENAO JINYINHUA PHARMACEUTICAL, priority 2021, published 2025).

The nature of series [1]: pH measurement of Aildenafil salts dissolved in water. The conditions noted are these: for 2 mg/ml pH value: 2 mg/ml in water; for 10 mg/ml pH value: 10 mg/ml in water. The series is classed as physicochemical.
The next series deals with MCAO rats. The series can be described thus: Cerebral infarction range (TTC) in MCAO rats, oral administration (Example 23). The class given is in vivo, SD rats. The conditions noted are these: gavage 8 mg/kg*2, after 14 days. The protocol:
Administration route: gavage administration;
Dosage: 8 mg/kg body weight, twice a day;
Administration time: gavage administration twice a day in the morning and evening (administered immediately after modeling).
A rat model of middle cerebral artery ischemia/reperfusion (MCAO/R) was created using suture-occluded method.
The successfully modeled rats were randomly divided into 4 groups based on their scores, with an average of 20 rats in each group.
At the end of the experiment, the brain tissue of the rats was collected by bloodletting and frozen in a −20° C. freezer, and then is sliced into a thickness of 2 mm per slice. The brain tissue slices were placed in a 2% red tetrazolium (TTC) solution and incubated at 37° C. for 5 minutes. The infarcted tissue appeared white, while the non-infarcted tissue appeared red. Image J software was used to measure the area of cerebral infarction and the percentage of infarct area to the total brain area was calculated.

As for `CCCc1nn(C)c2c(=O)[nH]c(-c3cc(S(=O)(=O)N4C[C@@H](C)N[C@@H](C)C4)ccc3OCC)nc12` [Aildenafil D-tartrate], in series [1] (listed as D-tartrate), the “2 mg/ml pH value” came out at 3.84 and the “10 mg/ml pH value” came out at 3.58.
Turning to `CCCc1nn(C)c2c(=O)[nH]c(-c3cc(S(=O)(=O)N4C[C@@H](C)N[C@@H](C)C4)ccc3OCC)nc12` [Aildenafil DL-tartrate], in series [1], the “2 mg/ml pH value” was found to be 3.90 and the “10 mg/ml pH value” is given as 3.57.
With `CN1CC(=O)N2[C@H](c3ccc4c(c3)OCO4)c3[nH]c4ccccc4c3C[C@@H]2C1=O` [Tadalafil], the “Improvement rate % of cerebral infarction range” value in the series on MCAO rats (versus model control group) is reported as 14.2%. Besides, the “Total cerebral infarction %” value in the series on MCAO rats (x ± s, n = 20) was 21.3 ± 6.5%.
